# Data taken from patent US12497365B2, “4-pyridinyl formamide compound or derivative thereof, preparation method therefor, herbicidal composition and use thereof” (Qingdao Kingagroot Chemical Compound Co., Ltd., priority 2019, dated 2025).
# Key:
# Abutilon theophrasti = test: Weeding effect in post-emergence stage; type: in vivo; conditions: active ingredient 2000 g/ha, 3 weeks after application, fresh weight control rate
# Method in brief: (§1)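 Read-out is growth control rate based on fresh weight, assessed 3 weeks after treatment in the greenhouse. Plants were sprayed at the 2-3 leaf stage with compound dissolved in acetone, plus Tween 80 and methyl oleate emulsifiable concentrate, at doses from 125 to 2000 g/ha.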
# [1] = test system: Amaranthus retroflexus L.; test: Weeding effect in post-emergence stage; type: in vivo; conditions: active ingredient 2000 g/ha, 3 weeks after application, fresh weight control rate
# Method in brief: as §1
# Chenopodium album = test: Weeding effect in post-emergence stage; type: in vivo; conditions: active ingredient 2000 g/ha, 3 weeks after application, fresh weight control rate
# Method in brief: as §1
# Descurainia sophia = test: Weeding effect in post-emergence stage; type: in vivo; conditions: for Activity level (growth control rate), Descurainia sophia: active ingredient 250 g/ha; for Weeding effect, activity level (growth control rate), Descurainia sophia: active ingredient 2000 g/ha, 3 weeks after application, fresh weight control rate
# Method in brief: as §1
# Alopecurus aequalis = test: Weeding effect in post-emergence stage; type: in vivo; conditions: active ingredient 250 g/ha
# Description: (§2) The activity level criteria for plant damage (i.e., growth control rate) are as follows:
# (§3) The above growth control rates are fresh weight control rates.
# (§4) Experiment on weeding effect in post-emergence stage: monocotyledonous and dicotyledonous weed seeds and major crop seeds (wheat, corn, rice, soybean, cotton, oilseed rape, millet, sorghum) were placed in plastic pots filled with soil, then covered with 0.5-2 cm of soil, allowed to grow in a good greenhouse environment. After 2 weeks of sowing, the test plants were treated in the 2-3 leaf stage. The tested compounds of the present invention were respectively dissolved in acetone at the dosage of 2000, 1000, 500, 250, 125 g/ha, then added with Tween 80 and 1.5 liter/ha of emulsifiable concentrate of methyl oleate as synergist, diluted with a certain amount of water to obtain a solution with a certain concentration, and sprayed with a spray tower onto the plants. After the application, the plants were cultured for 3 weeks in the greenhouse, and then the experimental results were listed in Table 1.
# (§5) In addition, under the active ingredient of 250 g/ha, many compounds also show good crop selectivity and excellent control effect on key weeds.
# Alopecurus myosuroides = test: Weeding effect in post-emergence stage; type: in vivo; conditions: active ingredient 250 g/ha
# Description: as §2, §3, §4, §5
# Beckmannia syzigachne = test: Weeding effect in post-emergence stage; type: in vivo; conditions: active ingredient 250 g/ha
# Description: as §2, §3, §4, §5
# Sclerochloa dura = test: Weeding effect in post-emergence stage; type: in vivo; conditions: active ingredient 250 g/ha
# Description: as §2, §3, §4, §5
# Wheat = test: Crop selectivity in post-emergence stage; type: in vivo; conditions: active ingredient 250 g/ha
# Description: as §2, §3, §4, §5
# [2] = test system: Echinochloa crusgalli, Scirpus juncoides, Bidens tripartita L., Sagittaria trifolia, Monochoria vaginalis; test: Weed control effect evaluation in rice field; type: in vivo, rice field weeds; conditions: weed seeds collected from Heilongjiang Province of China
# Description: Transplanted rice safety evaluation and weed control effect evaluation in rice field:
# Rice field soil was loaded into a 1/1,000,000 ha pot. The seeds of Echinochloa crusgalli, Scirpus juncoides, Bidens tripartita L., Sagittaria trifolia, and Monochoria vaginalis were sowed and gently covered with soil, then left to stand still in greenhouse in the state of 0.5-1 cm of water storage. The tuber of Sagittaria trifolia was planted in the next day or 2 days later. It was kept at 3-4 cm of water storage thereafter. The weeds were treated by dripping the WP or SC water diluents prepared according to the common preparation method of the compounds of the present invention with pipette homogeneously to achieve specified effective amount when Echinochloa crusgalli, Scirpus juncoides, Bidens tripartita L., and Monochoria vaginalis reached 0.5 leaf stage and Sagittaria trifolia reached the time point of primary leaf stage.
# The fertility condition of Echinochloa crusgalli, Scirpus juncoides, Bidens tripartita L., Sagittaria trifolia and Monochoria vaginalis 14 days after the treatment of the compound of the invention and the fertility condition of rice 21 days after the treatment of the compound of the invention respectively with the naked eye. Evaluate the weed control effect with the above 0-5 activity standard level, many compounds show excellent activity and selectivity. […]
Structure (SMILES),"Weeding effect, activity level (growth control rate), Abutilon theophrasti (Abutilon theophrasti)","Weeding effect, activity level (growth control rate), Amaranthus retroflexus L. [1]","Weeding effect, activity level (growth control rate), Chenopodium album (Chenopodium album)","Activity level (growth control rate), Descurainia sophia (Descurainia sophia)","Weeding effect, activity level (growth control rate), Descurainia sophia (Descurainia sophia)","Activity level (growth control rate), Alopecurus aequalis (Alopecurus aequalis)","Activity level (growth control rate), Alopecurus myosuroides (Alopecurus myosuroides)","Activity level (growth control rate), Beckmannia syzigachne (Beckmannia syzigachne)","Activity level (growth control rate), Sclerochloa dura (Sclerochloa dura)","Plant damage level (growth control rate), Wheat (Wheat)",Response of the rice field weeds to common doses of the herbicide [2]
Cn1nnnc1NC(=O)c1ccnc(-c2ccccc2F)c1Cl [Compound 1-15],5 (Level 5: growth control rate is above 85%),5 (Level 5: growth control rate is above 85%),5 (Level 5: growth control rate is above 85%),5 (Level 5: growth control rate is above 85%),5 (Level 5: growth control rate is above 85%),5 (Level 5: growth control rate is above 85%),5 (Level 5: growth control rate is above 85%),5 (Level 5: growth control rate is above 85%),5 (Level 5: growth control rate is above 85%),0 (Level 0: growth control rate is less than 5%),
Cn1nnnc1NC(=O)c1ccnc(-c2ccc(F)cc2)c1Cl [Compound 1-17],5 (Level 5: growth control rate is above 85%),5 (Level 5: growth control rate is above 85%),5 (Level 5: growth control rate is above 85%),5 (Level 5: growth control rate is above 85%),5 (Level 5: growth control rate is above 85%),5 (Level 5: growth control rate is above 85%),5 (Level 5: growth control rate is above 85%),5 (Level 5: growth control rate is above 85%),5 (Level 5: growth control rate is above 85%),0 (Level 0: growth control rate is less than 5%),
CSc1nccc(C(=O)Nc2nnnn2C)c1Cl [Compound 1-2065],5 (Level 5: growth control rate is above 85%),5 (Level 5: growth control rate is above 85%),5 (Level 5: growth control rate is above 85%),,5 (Level 5: growth control rate is above 85%),,,,,,
COc1ccc(CSc2nccc(C(=O)Nc3nnnn3C)c2Cl)cc1 [Compound 1-2069],5 (Level 5: growth control rate is above 85%),5 (Level 5: growth control rate is above 85%),5 (Level 5: growth control rate is above 85%),,5 (Level 5: growth control rate is above 85%),,,,,,
CCC[S+]([O-])c1nccc(C(=O)Nc2nnnn2C)c1Cl (stereo not drawn) [Compound 1-2070],5 (Level 5: growth control rate is above 85%),5 (Level 5: growth control rate is above 85%),5 (Level 5: growth control rate is above 85%),,5 (Level 5: growth control rate is above 85%),,,,,,
CCCS(=O)(=O)c1nccc(C(=O)Nc2nnnn2C)c1Cl [Compound 1-2071],5 (Level 5: growth control rate is above 85%),5 (Level 5: growth control rate is above 85%),5 (Level 5: growth control rate is above 85%),,5 (Level 5: growth control rate is above 85%),,,,,,
Cn1nnnc1NC(=O)c1ccnc(Nc2ccccc2)c1Cl [Compound 1-2075],5 (Level 5: growth control rate is above 85%),5 (Level 5: growth control rate is above 85%),5 (Level 5: growth control rate is above 85%),,5 (Level 5: growth control rate is above 85%),,,,,,
"Cc1nonc1NC(=O)c1ccnc(C)c1Cl [Control compound A, reference compound]",,,,0 (Level 0: growth control rate is less than 5%),,0 (Level 0: growth control rate is less than 5%),0 (Level 0: growth control rate is less than 5%),0 (Level 0: growth control rate is less than 5%),0 (Level 0: growth control rate is less than 5%),0 (Level 0: growth control rate is less than 5%),
"COc1cnc(OC)n2nc(NS(=O)(=O)c3c(OCC(F)F)cccc3C(F)(F)F)nc12 [Penoxsulam, penoxsulam]",,,,,,,,,,,resistant
"CCOC(=O)c1cnn(C)c1S(=O)(=O)NC(=O)Nc1nc(OC)cc(OC)n1 [Pyrazosulfuron-ethyl, pyrazosulfuron-ethyl]",,,,,,,,,,,resistant
